Test results as given in ChEMBL document CHEMBL5465560, “Selectivity Literature for EUbOPEN Chemogenomic Library” (2024).

Key:
[1] = target: T1, Bromodomain-containing protein 1 (Homo sapiens) (UniProt O95696); test: Selectivity interaction (PWWP, WD40, and Tudor domain panel (DSLS measurements, literature)) EUB0000270b BRD1
T1 sequence (whole entry): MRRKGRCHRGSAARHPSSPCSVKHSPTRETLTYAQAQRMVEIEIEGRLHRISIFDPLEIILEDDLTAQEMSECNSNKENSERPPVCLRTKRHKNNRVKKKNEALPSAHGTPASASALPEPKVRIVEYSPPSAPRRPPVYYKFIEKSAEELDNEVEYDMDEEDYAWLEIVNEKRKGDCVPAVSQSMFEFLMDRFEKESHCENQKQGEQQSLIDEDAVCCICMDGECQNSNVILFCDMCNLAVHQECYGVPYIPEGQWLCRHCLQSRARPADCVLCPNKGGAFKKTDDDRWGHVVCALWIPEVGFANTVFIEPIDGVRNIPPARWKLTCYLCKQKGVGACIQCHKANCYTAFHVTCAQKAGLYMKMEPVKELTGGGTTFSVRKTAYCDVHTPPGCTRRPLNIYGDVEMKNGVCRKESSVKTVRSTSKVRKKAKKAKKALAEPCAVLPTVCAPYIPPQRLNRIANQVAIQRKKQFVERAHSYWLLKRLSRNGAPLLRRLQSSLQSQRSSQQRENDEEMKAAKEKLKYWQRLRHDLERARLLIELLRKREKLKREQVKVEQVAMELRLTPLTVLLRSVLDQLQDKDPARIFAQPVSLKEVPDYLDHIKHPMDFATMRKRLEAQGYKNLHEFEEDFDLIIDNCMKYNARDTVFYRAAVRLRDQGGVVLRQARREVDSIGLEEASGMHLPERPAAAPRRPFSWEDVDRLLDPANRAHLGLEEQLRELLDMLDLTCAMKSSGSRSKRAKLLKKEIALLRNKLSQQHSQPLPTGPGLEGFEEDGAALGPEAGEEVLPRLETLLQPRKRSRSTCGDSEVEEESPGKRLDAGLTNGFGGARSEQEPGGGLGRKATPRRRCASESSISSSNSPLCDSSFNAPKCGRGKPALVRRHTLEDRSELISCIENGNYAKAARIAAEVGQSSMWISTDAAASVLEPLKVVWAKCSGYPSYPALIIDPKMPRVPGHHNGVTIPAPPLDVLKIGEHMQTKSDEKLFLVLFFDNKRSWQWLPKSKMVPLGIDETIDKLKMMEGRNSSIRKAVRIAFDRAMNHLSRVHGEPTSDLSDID

[2] = target: Serine/threonine-protein kinase pim-2 (Homo sapiens, UniProt Q9P1W9); test: Selectivity interaction (KinomeScan (DiscoverX)) EUB0000607a PIM2; details: at 10 µM
Serine/threonine-protein kinase pim-2, sequence (Q9P1W9 whole entry, looked up): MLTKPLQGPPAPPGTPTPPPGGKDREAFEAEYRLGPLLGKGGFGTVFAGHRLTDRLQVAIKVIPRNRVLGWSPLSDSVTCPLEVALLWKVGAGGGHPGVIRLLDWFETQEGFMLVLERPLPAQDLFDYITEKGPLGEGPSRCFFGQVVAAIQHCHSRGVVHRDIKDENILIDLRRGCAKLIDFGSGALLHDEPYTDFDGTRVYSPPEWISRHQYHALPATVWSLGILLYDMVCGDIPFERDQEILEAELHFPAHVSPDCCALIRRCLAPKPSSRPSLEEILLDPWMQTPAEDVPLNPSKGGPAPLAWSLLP

[3] = target: T2, Mitogen-activated protein kinase kinase kinase 13 (Homo sapiens) (UniProt O43283); test: Selectivity interaction (KinomeScan (DiscoverX)) EUB0000618a MAP3K13; details: at 10 µM
T2 sequence (whole entry): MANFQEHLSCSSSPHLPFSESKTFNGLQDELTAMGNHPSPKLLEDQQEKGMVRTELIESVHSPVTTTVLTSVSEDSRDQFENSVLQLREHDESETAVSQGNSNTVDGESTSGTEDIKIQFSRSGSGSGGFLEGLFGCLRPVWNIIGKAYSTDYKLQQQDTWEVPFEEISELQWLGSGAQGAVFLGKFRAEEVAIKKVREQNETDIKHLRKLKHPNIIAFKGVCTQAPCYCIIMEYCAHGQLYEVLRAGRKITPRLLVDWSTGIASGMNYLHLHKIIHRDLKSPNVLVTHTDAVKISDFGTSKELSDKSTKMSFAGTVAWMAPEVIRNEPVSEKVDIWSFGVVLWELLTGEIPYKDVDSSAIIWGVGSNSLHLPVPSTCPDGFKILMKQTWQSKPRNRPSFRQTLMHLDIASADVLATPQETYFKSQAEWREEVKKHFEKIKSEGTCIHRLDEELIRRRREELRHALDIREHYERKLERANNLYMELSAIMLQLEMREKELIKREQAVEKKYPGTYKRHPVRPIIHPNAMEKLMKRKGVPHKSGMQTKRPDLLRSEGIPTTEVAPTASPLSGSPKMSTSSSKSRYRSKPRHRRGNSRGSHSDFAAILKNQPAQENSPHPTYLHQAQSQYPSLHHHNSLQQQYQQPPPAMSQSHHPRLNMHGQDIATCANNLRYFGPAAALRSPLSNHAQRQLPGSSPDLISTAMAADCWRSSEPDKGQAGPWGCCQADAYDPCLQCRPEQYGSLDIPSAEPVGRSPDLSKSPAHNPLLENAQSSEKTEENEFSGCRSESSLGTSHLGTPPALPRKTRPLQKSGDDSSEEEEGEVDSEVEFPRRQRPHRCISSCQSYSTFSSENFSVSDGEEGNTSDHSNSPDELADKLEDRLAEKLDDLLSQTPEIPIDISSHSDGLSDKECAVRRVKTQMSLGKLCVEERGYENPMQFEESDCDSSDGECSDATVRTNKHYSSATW

[4] = target: TGF-beta receptor type-2 (Homo sapiens) (UniProt P37173); test: Selectivity interaction (KinomeScan (DiscoverX)) EUB0001619a TGFBR2; details: at 1 µM
TGF-beta receptor type-2 (Homo sapiens), sequence (P37173 whole entry): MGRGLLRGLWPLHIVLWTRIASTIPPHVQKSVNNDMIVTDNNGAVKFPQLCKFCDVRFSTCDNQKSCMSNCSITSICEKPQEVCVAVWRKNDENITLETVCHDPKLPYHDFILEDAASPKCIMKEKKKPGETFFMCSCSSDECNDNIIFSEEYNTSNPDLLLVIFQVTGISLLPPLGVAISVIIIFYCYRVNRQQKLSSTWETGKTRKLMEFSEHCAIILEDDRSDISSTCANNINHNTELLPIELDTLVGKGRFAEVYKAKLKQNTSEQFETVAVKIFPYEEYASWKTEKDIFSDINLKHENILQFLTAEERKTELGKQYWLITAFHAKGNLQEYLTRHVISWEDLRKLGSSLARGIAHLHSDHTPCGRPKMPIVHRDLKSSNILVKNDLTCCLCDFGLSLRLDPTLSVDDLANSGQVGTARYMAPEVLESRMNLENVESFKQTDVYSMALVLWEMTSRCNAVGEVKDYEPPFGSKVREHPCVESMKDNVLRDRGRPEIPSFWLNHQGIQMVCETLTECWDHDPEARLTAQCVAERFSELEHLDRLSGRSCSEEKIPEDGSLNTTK

Cc1cc(CN)cc(C)c1-c1ncn(C)c1-c1cncn1C
dTagg [1]: -2.2 K

CNC(=O)Nc1ccc(-c2nc(N3CC4CCC(C3)O4)c3cnn(C4CCC5(CC4)OCCO5)c3n2)cc1
% of control [2]: 74%

O[C@H]1CC[C@H](Nc2ncc3nc(Nc4c(F)cc(F)cc4F)n([C@H]4CCOC4)c3n2)CC1
% of control [3]: 100%

N#Cc1cccc(-c2c[nH]c3ncnc(N4CCOCC4)c23)c1
% of control [4]: 100%
